Assay results: PubChem BioAssay (NCI)
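48-hour exposure; five concentrations; linearly interpolated endpoints. At the GI50, growth is halved. TGI marks complete inhibition of growth.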

Experiments:
Assay in all cases: NCI tumour cell line growth inhibition, 48 h
[1] = system: MDA-MB-468 breast
[2] = system: SN12C renal
[3] = system: CAKI-1 renal
[4] = system: SNB-75 CNS
[5] = system: U251 CNS
[6] = system: OVCAR-8 ovarian
[7] = system: NCI-H522 lung
[8] = system: OVCAR-3 ovarian
[9] = system: OVCAR-4 ovarian
[10] = system: HOP-62 NSCLC
[11] = system: A549 NSCLC
[12] = system: M14 melanoma
[13] = system: SK-MEL-2 melanoma
[14] = system: NCI-H23 lung
[15] = system: UO-31 renal
[16] = system: HT29 colon
[17] = system: RPMI-8226 leukemia
[18] = system: DU-145 prostate
[19] = system: HCT-116 colon
[20] = system: TK-10 renal
[21] = system: SF-539 CNS
[22] = system: MOLT-4 leukemia
[23] = system: LOX IMVI melanoma
[24] = system: COLO 205 colon
[25] = system: HS 578T breast
[26] = system: T-47D breast
[27] = system: MDA-MB-435
[28] = system: SF-268 CNS
[29] = system: CCRF-CEM leukemia
[30] = system: IGROV1 ovarian
[31] = system: NCI-H460 lung
[32] = system: MDA-MB-231 breast
[33] = system: SW-620 colon
[34] = system: 786-0 renal
[35] = system: BT-549 breast
[36] = system: SF-295 CNS
[37] = system: ACHN renal
[38] = system: SK-OV-3 ovarian
[39] = system: SR leukemia
[40] = system: UACC-257 melanoma
[41] = system: UACC-62 melanoma
[42] = system: RXF 393 renal
[43] = system: HCC-2998 colon
[44] = system: MCF7 breast
[45] = system: OVCAR-5 ovarian
[46] = system: MALME-3M melanoma
[47] = system: A498 renal
[48] = system: HCT-15 colon
[49] = system: HL-60(TB) leukemia
[50] = system: NCI-H226 lung
[51] = system: HOP-92 NSCLC
[52] = system: SK-MEL-5 melanoma
[53] = system: SNB-19 CNS
[54] = system: K-562 leukemia
[55] = system: SK-MEL-28 melanoma
[56] = system: KM12 colon
[57] = system: PC-3 prostate
[58] = system: EKVX NSCLC

## c1ccc(-c2nnc(-c3ccccn3)s2)nc1
[1]
  GI50: 9.76 µM
  TGI: > 100 µM

## NC(=O)/C=C/C(=O)c1c(Cl)cccc1Cl
[1]
  GI50: 0.292 µM
  TGI: 0.971 µM

## COc1cc(Nc2ncccc2C(=O)NCc2cn(Cc3cccc(Oc4ccccc4)c3)nn2)cc(OC)c1
[1]
  GI50: 2.42 µM
  TGI: 7.01 µM

## N#Cc1c(NC(=O)NCc2ccccc2)sc2c1CCCCC2
[1]
  GI50: 0.317 µM
  TGI: 3.52 µM

## COc1cccc(CC(C)=C(c2ccc(OCCN(C)C)cc2)c2ccc(OCCN(C)C)cc2)c1
[1]
  GI50: 1.16 µM
  TGI: 5.26 µM

## COc1cc(NC(=O)c2cc(-c3ccc(F)cc3F)ccc2O)cc(OC)c1OC
[2]
  GI50: 6.12 µM
  TGI: 22.1 µM
[3]
  GI50: 7.67 µM
  TGI: 38.8 µM
[4]
  GI50: 6.57 µM
  TGI: 23.8 µM
[5]
  GI50: 11 µM
  TGI: 27.1 µM
[6]
  GI50: 13 µM
  TGI: > 100 µM
[7]
  GI50: 3.19 µM
  TGI: 13.7 µM
[8]
  GI50: 5.49 µM
  TGI: 32.4 µM
[9]
  GI50: 4.45 µM
  TGI: 31.4 µM
[10]
  GI50: 13.4 µM
  TGI: 33.2 µM
[11]
  GI50: 12.7 µM
  TGI: 35.1 µM
[12]
  GI50: 15.3 µM
  TGI: 31.8 µM
[13]
  GI50: 3.01 µM
  TGI: 13.9 µM
[14]
  GI50: 4.75 µM
  TGI: 18.9 µM
[15]
  GI50: 5.24 µM
  TGI: 23.5 µM
[16]
  GI50: 17.9 µM
  TGI: 33.6 µM
[17]
  GI50: 3.4 µM
  TGI: 45.9 µM
[18]
  GI50: 13.9 µM
  TGI: 39.4 µM
[19]
  GI50: 13.7 µM
  TGI: 32.2 µM
[20]
  GI50: 12 µM
  TGI: 45.4 µM
[21]
  GI50: 12.4 µM
  TGI: 26.5 µM
[22]
  GI50: 5.9 µM
  TGI: 36.4 µM
[23]
  GI50: 13 µM
  TGI: 27.3 µM
[24]
  GI50: 18.2 µM
  TGI: 34.4 µM
[25]
  GI50: 5.2 µM
  TGI: 26.9 µM
[26]
  GI50: 2.73 µM
  TGI: 9.31 µM
[27]
  GI50: 6.27 µM
  TGI: 19.4 µM
[28]
  GI50: 6.03 µM
  TGI: 28.3 µM
[29]
  GI50: 6.23 µM
  TGI: 29.7 µM
[30]
  GI50: 10.4 µM
  TGI: 30.9 µM
[31]
  GI50: 6.51 µM
  TGI: 20.2 µM
[32]
  GI50: 18.8 µM
  TGI: 51.2 µM
[33]
  GI50: 14.2 µM
  TGI: 29 µM
[34]
  GI50: 19.4 µM
  TGI: 46.6 µM
[35]
  GI50: 5.29 µM
  TGI: 22.6 µM
[36]
  GI50: 15.6 µM
  TGI: 32.6 µM
[37]
  GI50: 16.2 µM
  TGI: 66.3 µM
[38]
  GI50: 8.43 µM
  TGI: 23.9 µM
[39]
  GI50: 4.2 µM
  TGI: 40.5 µM
[40]
  GI50: 10.2 µM
  TGI: 22.4 µM
[41]
  GI50: 3.52 µM
  TGI: 13.4 µM
[42]
  GI50: 2.86 µM
  TGI: 16.8 µM
[43]
  GI50: 11.9 µM
  TGI: 25.4 µM
[44]
  GI50: 9.64 µM
  TGI: 43.1 µM
[45]
  GI50: 19.3 µM
  TGI: 43.4 µM
[46]
  GI50: 11.4 µM
  TGI: 25.9 µM
[47]
  GI50: 12.1 µM
  TGI: 25.8 µM
[48]
  GI50: 5.63 µM
  TGI: 24.9 µM
[49]
  GI50: 6.09 µM
  TGI: > 100 µM
[50]
  GI50: 6.92 µM
  TGI: 30 µM
[51]
  GI50: 3.49 µM
  TGI: 15.9 µM
[52]
  GI50: 3.16 µM
  TGI: 10.6 µM
[1]
  GI50: 3.98 µM
  TGI: 17 µM
[53]
  GI50: 6.63 µM
  TGI: 29.5 µM
[54]
  GI50: 5.1 µM
  TGI: > 100 µM
[55]
  GI50: 8.98 µM
  TGI: 22.3 µM
[56]
  GI50: 10.2 µM
  TGI: 23.3 µM
[57]
  GI50: 12.5 µM
  TGI: 61.5 µM
[58]
  GI50: 12.3 µM
  TGI: 48.3 µM
